Data from ChEMBL document CHEMBL3120056 (Eur J Med Chem, 2014).
Activity calls are given as the source filed them. The rule behind the calls is not given here.

Tests used:
Format in all cases: cell-based
[1] = target: Somatostatin receptor type 1 (Homo sapiens, UniProt P30872); experiment: Displacement of [125I]-[LTT]-SS28 from human SST1 receptor expressed in CHO cells after 2 hrs by autoradiographic analysis
[2] = target: T1, Somatostatin receptor type 2 (Homo sapiens, UniProt P30874); experiment: Agonist activity at T7-epitope-tagged human SST2A receptor expressed in HEK293 cells assessed as stimulation of receptor internalization at 1 uM after 30 mins by immunofluorescence microscopic analysis
[3] = target: Somatostatin receptor type 5 (Homo sapiens, UniProt P35346); experiment: Displacement of [125I]-[LTT]-SS28 from human SST5 receptor expressed in HEK293 cells after 2 hrs by autoradiographic analysis
[4] = target: Somatostatin receptor type 4 (Homo sapiens, UniProt P31391); experiment: Displacement of [125I]-[LTT]-SS28 from human SST4 receptor expressed in Chinese hamster CCL-39 cells after 2 hrs by autoradiographic analysis
[5] = target: T1, Somatostatin receptor type 2; experiment: Displacement of [125I]-[LTT]-SS28 from human SST2 receptor expressed in Chinese hamster CCL-39 cells after 2 hrs by autoradiographic analysis
[6] = target: Somatostatin receptor type 3 (Homo sapiens, UniProt P32745); experiment: Displacement of [125I]-[LTT]-SS28 from human SST3 receptor expressed in Chinese hamster CCL-39 cells after 2 hrs by autoradiographic analysis
Somatostatin receptor type 3, sequence (P32745 whole entry): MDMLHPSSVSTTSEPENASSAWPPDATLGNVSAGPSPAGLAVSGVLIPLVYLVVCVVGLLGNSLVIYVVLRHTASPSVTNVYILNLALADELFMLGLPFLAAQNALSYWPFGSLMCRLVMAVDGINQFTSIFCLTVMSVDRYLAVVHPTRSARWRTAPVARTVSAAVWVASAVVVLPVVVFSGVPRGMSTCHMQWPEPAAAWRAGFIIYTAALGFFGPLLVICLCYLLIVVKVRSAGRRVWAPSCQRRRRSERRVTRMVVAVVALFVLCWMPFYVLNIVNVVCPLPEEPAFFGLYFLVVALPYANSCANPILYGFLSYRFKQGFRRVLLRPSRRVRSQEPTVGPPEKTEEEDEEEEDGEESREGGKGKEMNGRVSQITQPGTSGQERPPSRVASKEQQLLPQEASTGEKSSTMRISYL

T1 sequence (P30874 whole entry): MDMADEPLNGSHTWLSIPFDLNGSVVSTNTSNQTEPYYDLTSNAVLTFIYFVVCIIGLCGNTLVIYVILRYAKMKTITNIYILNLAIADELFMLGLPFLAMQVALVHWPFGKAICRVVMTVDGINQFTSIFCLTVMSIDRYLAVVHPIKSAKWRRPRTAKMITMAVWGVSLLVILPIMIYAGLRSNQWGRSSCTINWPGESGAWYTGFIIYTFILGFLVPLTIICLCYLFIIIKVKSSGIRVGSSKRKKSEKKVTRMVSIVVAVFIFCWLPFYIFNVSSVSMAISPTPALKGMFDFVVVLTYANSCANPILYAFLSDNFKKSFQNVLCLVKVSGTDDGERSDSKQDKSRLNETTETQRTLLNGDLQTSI
Somatostatin receptor type 5, sequence (P35346 whole entry): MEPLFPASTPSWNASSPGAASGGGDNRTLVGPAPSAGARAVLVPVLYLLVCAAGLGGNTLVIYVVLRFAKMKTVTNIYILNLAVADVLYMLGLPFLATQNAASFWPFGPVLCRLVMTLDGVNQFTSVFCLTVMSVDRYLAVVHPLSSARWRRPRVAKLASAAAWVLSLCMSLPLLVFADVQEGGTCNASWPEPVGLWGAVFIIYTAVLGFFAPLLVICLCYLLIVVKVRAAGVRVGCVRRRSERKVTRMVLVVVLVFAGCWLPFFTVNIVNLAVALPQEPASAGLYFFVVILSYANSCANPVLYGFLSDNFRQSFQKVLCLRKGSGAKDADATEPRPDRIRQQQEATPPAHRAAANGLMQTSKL
Somatostatin receptor type 4, sequence (P31391 whole entry): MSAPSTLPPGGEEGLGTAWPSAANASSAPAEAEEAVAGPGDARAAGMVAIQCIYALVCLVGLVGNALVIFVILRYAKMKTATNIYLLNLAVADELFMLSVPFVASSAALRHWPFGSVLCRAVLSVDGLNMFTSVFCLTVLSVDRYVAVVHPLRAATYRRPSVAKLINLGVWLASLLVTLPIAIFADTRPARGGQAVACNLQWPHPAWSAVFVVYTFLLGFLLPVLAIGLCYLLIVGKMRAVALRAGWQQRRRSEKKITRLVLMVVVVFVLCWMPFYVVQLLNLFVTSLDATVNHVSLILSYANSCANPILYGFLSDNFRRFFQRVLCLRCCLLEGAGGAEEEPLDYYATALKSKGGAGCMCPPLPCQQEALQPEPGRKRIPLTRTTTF
Somatostatin receptor type 1, sequence (P30872 whole entry): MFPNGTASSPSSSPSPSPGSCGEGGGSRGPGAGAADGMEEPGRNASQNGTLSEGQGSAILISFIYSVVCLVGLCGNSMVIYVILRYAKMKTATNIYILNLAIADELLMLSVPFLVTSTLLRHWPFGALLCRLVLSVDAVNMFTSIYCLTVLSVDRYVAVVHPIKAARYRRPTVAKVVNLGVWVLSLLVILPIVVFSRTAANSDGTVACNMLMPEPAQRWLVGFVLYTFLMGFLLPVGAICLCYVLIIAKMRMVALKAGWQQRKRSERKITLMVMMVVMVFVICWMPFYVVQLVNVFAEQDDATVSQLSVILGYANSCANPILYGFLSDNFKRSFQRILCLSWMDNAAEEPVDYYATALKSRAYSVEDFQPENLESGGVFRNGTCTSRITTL

SMILES	IC50 [1] [nM]	Activity [2]	IC50 [3] [nM]	IC50 [4] [nM]	IC50 [5] [nM]	IC50 [6] [nM]
CCCC[C@H](NC(=O)CNC(=O)[C@H](C)NC(=O)CN1CCN(CC(=O)O)CCN(CC(=O)O)CCN(CC(=O)O)CC1)C(=O)N[C@@H](CCCCN)C(=O)N[C@@H]1CSSC[C@@H](C(=O)N[C@@H](CO)C(=O)NCC(=O)O)NC(=O)[C@H](Cc2ccccc2)NC(=O)[C@H]([C@@H](C)O)NC(=O)[C@H](CCCCN)NC(=O)[C@@H](Cc2c[nH]c3ccccc23)NC(=O)[C@H](Cc2ccccc2)NC(=O)[C@H](Cc2ccccc2)NC1=O	18	inactive	37	5.4	50	98
C[C@@H](O)[C@@H]1NC(=O)[C@H](CCCCN)NC(=O)[C@@H](Cc2c[nH]c3ccccc23)NC(=O)[C@H](Cc2ccccc2)NC(=O)[C@H](Cc2ccccc2)NC(=O)[C@@H](NC(=O)[C@H](CCCNC(=N)N)NC(=O)COCCOCCNC(=O)CN2CCN(CC(=O)O)CCN(CC(=O)O)CCN(CC(=O)O)CC2)CSSC[C@@H](C(=O)O)NC(=O)[C@H](CO)NC(=O)[C@H](Cc2ccccc2)NC1=O	171	Active	16	0.9	0.76	24
CCCC[C@H](NC(=O)CNC(=O)[C@H](C)NC(=O)CN1CCN(CC(=O)O)CCN(CC(=O)O)CCN(CC(=O)O)CC1)C(=O)N[C@@H](CCCCN)C(=O)N[C@H]1CSSC[C@@H](C(=O)N[C@@H](CO)C(=O)NCC(=O)O)NC(=O)[C@H](Cc2ccccc2)NC(=O)[C@H]([C@@H](C)O)NC(=O)[C@H](CCCCN)NC(=O)[C@@H](Cc2c[nH]c3ccccc23)NC(=O)[C@H](Cc2ccccc2)NC(=O)[C@H](Cc2ccccc2)NC1=O	33	Active	50	4	11	16
C[C@H](NC(=O)CN1CCN(CC(=O)O)CCN(CC(=O)O)CCN(CC(=O)O)CC1)C(=O)NCC(=O)N[C@H]1CSSC[C@H](C(=O)O)NC(=O)[C@H](CO)NC(=O)[C@H]([C@@H](C)O)NC(=O)[C@H](Cc2ccccc2)NC(=O)[C@H]([C@@H](C)O)NC(=O)[C@H](CCCCN)NC(=O)[C@@H](Cc2c[nH]c3ccccc23)NC(=O)[C@H](Cc2ccccc2)NC(=O)[C@H](Cc2ccccc2)NC(=O)[C@H](CC(N)=O)NC(=O)[C@H](CCCNC(=N)N)NC1=O	38	Active	25	2.8	1.6	16

Further lines, results first:

IC50 [1] [nM]	Activity [2]	IC50 [3] [nM]	IC50 [4] [nM]	IC50 [5] [nM]	IC50 [6] [nM]	SMILES
> 1000	inactive	> 1000	> 1000	946	> 1000	CCCC[C@H](NC(=O)CNC(=O)[C@H](C)NC(=O)CN1CCN(CC(=O)O)CCN(CC(=O)O)CCN(CC(=O)O)CC1)C(=O)N[C@@H](CCCCN)C(=O)N[C@@H](CC(N)=O)C(=O)N[C@H]1CSSC[C@@H](C(=O)N[C@H](C(=O)N[C@@H](CO)C(=O)NCC(=O)O)[C@@H](C)O)NC(=O)[C@H]([C@@H](C)O)NC(=O)[C@H](CCCCN)NC(=O)[C@@H](Cc2c[nH]c3ccccc23)NC(=O)[C@H](Cc2ccc(O)cc2)NC1=O
795	Active	58	1.2	1	18	C[C@@H](O)[C@@H]1NC(=O)[C@H](CCCCN)NC(=O)[C@@H](Cc2c[nH]c3ccccc23)NC(=O)[C@H](Cc2ccccc2)NC(=O)[C@H](Cc2ccccc2)NC(=O)[C@@H](NC(=O)CNC(=O)COCCOCCNC(=O)CN2CCN(CC(=O)O)CCN(CC(=O)O)CCN(CC(=O)O)CC2)CSSC[C@@H](C(=O)O)NC(=O)[C@H](CO)NC(=O)[C@H](Cc2ccccc2)NC1=O
> 1000	inactive	> 1000	> 1000	> 1000	> 1000	CCCC[C@H](NC(=O)CNC(=O)[C@H](C)NC(=O)CN1CCN(CC(=O)O)CCN(CC(=O)O)CCN(CC(=O)O)CC1)C(=O)N[C@@H](CCCCN)C(=O)N[C@@H](CC(N)=O)C(=O)N[C@H]1CSSC[C@@H](C(=O)N[C@H](C(=O)N[C@@H](CO)C(=O)NCC(=O)O)[C@@H](C)O)NC(=O)[C@H]([C@@H](C)O)NC(=O)[C@H](CCCCN)NC(=O)[C@@H](Cc2c[nH]c3ccccc23)NC(=O)[C@H](Cc2ccccc2)NC1=O
